In brackets after ≈: the same amount, converted by molar mass. Bridge positions count the residues as written; N and C are the ends. Square brackets hold non-standard residues; d marks the D form. Peptide text beside a SMILES is read from it. * marks the point of attachment. X1 = CC[C@H](C)CCCCC(=O)*; Dab = NCC[C@H](N)C(=O)O

Test [1] has as its system Salmonella typhimurium SL1344. The test can be described thus: MIC assay (microplate broth dilution). The settings on record: Salmonella enterica, 18 h. It is filed as cell-based. The protocol:
(§1) The MICs of the peptides were determined using the microplate broth dilution method.^[ [32] ^] The bacteria in the mid‐log phase were diluted to 5 × 10^5 colony forming units (CFU) mL^−1 in TSB. 100 µL of serially diluted peptide solution and 100 µL of diluted bacteria were put to a sterile 96‐well plate.

For test [2], the system named is Enterococcus faecalis 4P‐SA. Briefly: microbe, parasite or virus in culture. It is filed as cell-based. The settings on record: broth dilution, TSB, 5 × 10^5 CFU mL^−1, 18 h, 37 °C. The protocol: as §1
For orientation: Broth dilution looks for growth in wells or tubes with falling amounts of substance.

In test [3] the test system is Enterococcus faecalis ATCC51299. Briefly: microbe, parasite or virus in culture. The format is cell-based. Conditions: ATCC51299, 18 h. Here is the method:
as §1

In another test the test system is Klebsiella pneumoniae K7. The test can be described thus: microbe, parasite or virus in culture. It is filed as cell-based. Conditions: broth dilution, TSB, 5 × 10^5 CFU mL^−1, 18 h, 37 °C. Here is the method:
as §1

The test system of test [4] is Methicillin‐Resistant Staphylococcus aureus USA300. Briefly: microbe, parasite or virus in culture. It is filed as cell-based. The settings on record: broth dilution, TSB, 5 × 10^5 CFU mL^−1, 18 h, 37 °C, MRSA USA300. The protocol: as §1
Test [5] concerns Pseudomonas aeruginosa ATCC 27853. Briefly: microbe, parasite or virus in culture. It is filed as cell-based. Conditions: ATCC27853, broth dilution, TSB, 5 × 10^5 CFU mL^−1, 18 h, 37 °C. The protocol: as §1
In test [6] the test system is Salmonella pullorum ATCC19945. The test can be described thus: microbe, parasite or virus in culture. The format is cell-based. Conditions: Salmonella enterica, broth dilution, TSB, 5 × 10^5 CFU mL^−1, 18 h, 37 °C. Here is the method:
as §1

For test [7], the system named is Staphylococcus aureus ATCC25904. The test can be described thus: microbe, parasite or virus in culture. The format is cell-based. The settings on record: broth dilution, TSB, 5 × 10^5 CFU mL^−1, 18 h, 37 °C. Here is the method: as §1
Test [8] deals with Staphylococcus aureus ATCC25923. The test can be described thus: microbe, parasite or virus in culture. The format is cell-based. Conditions: broth dilution, TSB, 5 × 10^5 CFU mL^−1, 18 h, 37 °C. Here is the method:
as §1

The test system of test [9] is Staphylococcus aureus ATCC29213. Briefly: microbe, parasite or virus in culture. It is filed as cell-based. Conditions: broth dilution, TSB, 5 × 10^5 CFU mL^−1, 18 h, 37 °C. Here is the method: as §1
Test [10] has as its system Staphylococcus epidermidis YYF‐771. The test can be described thus: microbe, parasite or virus in culture. The settings on record: broth dilution, TSB, 5 × 10^5 CFU mL^−1, 18 h, 37 °C. The format is cell-based. The protocol:
as §1

The next test deals with Bacillus subtilis BL‐4. The test can be described thus: microbe, parasite or virus in culture. Conditions: 18 h. Here is the method: as §1
Test [11] relates to Listeria monocytogenes 10403S. Briefly: microbe, parasite or virus in culture. Conditions: 18 h. The protocol: as §1
Test [12] deals with Listeria monocytogenes ATCC19115. Briefly: microbe, parasite or virus in culture. Conditions: ATCC19115, 18 h. Here is the method: as §1
The test system of test [13] is Listeria monocytogenes EGD. Briefly: microbe, parasite or virus in culture. The settings on record: 18 h. Here is the method: as §1
The next test relates to Escherichia coli O157:H7. It is filed as cell-based. Conditions: broth dilution, TSB, 5 × 10^5 CFU mL^−1, 18 h, 37 °C. Here is the method: as §1
The next test concerns E. coli O157:H7. The test can be described thus: Time‐kill kinetics. The format is cell-based, Escherichia coli. The settings on record: 4 × MIC, 1 × 10^5 CFU mL^−1 E. coli O157:H7, 37 °C; n = 3. The protocol:
During the logarithmic growth phase, 1 × 10^5 CFU mL^−1 of E. coli O157:H7 was diluted in 1 mL, the peptides were incubated with the bacterial solution for several intervals.^[ [42] ^] The solution was diluted to a suitable ratio and evenly distributed across the TSB agar plates. Before being counted, colonies were cultured for one night at 37 °C.

The subject of test [14] is persisters induced from E. coli. The test can be described thus: Bactericidal activity against persisters. The format is cell-based, Escherichia coli. The settings on record: colistin at 4 × MIC (25 µmol L^−1), 24 h; rifampicin‐induced E. coli persisters; n = 3. Here is the method:
Previously recognized and widely used procedures for developing persisters. The bacterial cells, with a turbidity of 0.8 at 600 nm, were obtained in the mid‐log phase. The culture was cultured at 37 °C for 30 min after 100 µg mL^−1 rifampicin (Macklin, Shanghai, China) was added. The rifampicin‐treated culture was centrifuged, and the pellet was resuspended in TSB containing ampicillin (final concentration: 300 µg mL^−1; Macklin, Shanghai, China) to remove nonpersister cells. […] Then cultured for 24 h, spotted on TSB agar, and incubated overnight at 37 °C.

Test [15] deals with diabetic wound infections. Conditions: cecropin ref 27b, SCIBIOIII ref 28, QHREDGS ref 29, LL‐37 ref 30; cited from earlier work. From the text:
A significant concern in diabetic wound infections is the complexity of mixed bacterial infections, contributing to prolonged wound healing times, extended periods of inflammation, and a heightened risk of ulcer recurrence.^[ [26] ^] Naturally, an ointment that eliminates these microorganisms holds enormous promise for treating diabetes patients who have recurring infections and preventing the development of antibiotic resistance and transmission. According to earlier research, this CaAGE hydrogel basis was ideal for the AMPs.^[ [27] ^] in terms of the stability, release profile, and antibacte ...

The subject of test [16] is drug‐resistant Gram‐positive bacterial infections. The settings on record: cited from earlier work. From the text:
Conventional screening methods have been unsuccessful in discovering new antibiotics in recent years.^[ [16] ^] Traditional screening sources seem overexploited and tend to produce compounds that are already known. However, uncultured bacteria represent a significant and untapped reservoir of novel natural product frameworks.^[ [17] ^] […] In the context of this ...

Take `CC1(C)S[C@@H]2[C@H](NC(=O)[C@H](N)c3ccccc3)C(=O)N2[C@H]1C(=O)O` [ampicillin, Ampicillin]: the MIC was 12.5 µM (≈ 4.37 µg/mL) in test [1]; > 71.6 µM in test [2]; 12.5 µM (≈ 4.37 µg/mL) in test [3]; > 71.6 µM in the test on Klebsiella pneumoniae K7; 71.6 µM (≈ 25 µg/mL) in test [4]; > 71.6 µM in [5]. Besides, the MIC in test [6] is 35.8 µM (≈ 12.5 µg/mL); in [7], > 71.6 µM; in test [8] it was 1.57 µM (≈ 0.549 µg/mL); in test [9], 1.57 µM (≈ 0.549 µg/mL); in test [10], 1.57 µM (≈ 0.549 µg/mL); in the test on Bacillus subtilis BL‐4, 1.57 µM (≈ 0.549 µg/mL). Moreover, the results for the MIC in test [11], in [12] and in [13] were 25 µM (≈ 8.74 µg/mL), 6.25 µM (≈ 2.18 µg/mL) and 4.5 µM (≈ 1.57 µg/mL), respectively.
For `CC[C@H](C)CCCCC(=O)N[C@@H](CCN)C(=O)N[C@H](C(=O)N[C@@H](CCN)C(=O)N[C@H]1CCNC(=O)[C@H]([C@@H](C)O)NC(=O)[C@H](CCN)NC(=O)[C@H](CCN)NC(=O)[C@H](CC(C)C)NC(=O)[C@@H](CC(C)C)NC(=O)[C@H](CCN)NC1=O)[C@@H](C)O` [colistin, Colistin] (X1-[Dab]T[Dab][Dab][Dab][dL]L[Dab][Dab]T; lactam 4-C (inferred); N-terminus assumed), the MIC with Escherichia coli O157:H7 turned out to be 3.13 µM (≈ 3.66 µg/mL). Besides, in the test on E. coli O157:H7, the “time to eradicate all E. coli cells” value turned out to be 2 h. The effect on persisters result in [14] is listed as “had little effect on the survival”.
Regarding LL‐37, the “bacterial count reduction / wound healing in diabetic wound infections” value in [15] is “none of these peptides demonstrated the capacity to significantly reduce bacterial counts by ≈3‐log or expedite wound healing within a 10‐day timeframe”.
Consider “QHREDGS [AMP researched for diabetic wound infections]”, for which the “bacterial count reduction / wound healing in diabetic wound infections” value in [15] is listed as “none of these peptides demonstrated the capacity to significantly reduce bacterial counts by ≈3‐log or expedite wound healing within a 10‐day timeframe”.
With cecropin, the “bacterial count reduction / wound healing in diabetic wound infections” value in test [15] was “none of these peptides demonstrated the capacity to significantly reduce bacterial counts by ≈3‐log or expedite wound healing within a 10‐day timeframe”.
Consider clovibactin, for which the efficacy result in [16] is recorded as “effectively controlling drug‐resistant Gram‐positive bacterial infections”.
